Measurements published in patent publication US20240158446A1, “CYCLIC COMPOUND HAVING SELECTIVE INHIBITORY ACTION ON KRAS OVER HRAS AND NRAS” (CHUGAI SEIYAKU KABUSHIKI KAISHA, priority 2021, published 2024).
Like-named read-outs stand apart in the source and are kept apart here. Where a SMILES comes first, the peptide text is derived from it. Bridges are numbered along the chain shown (N, C = ends). [ ]: non-standard residue; d: D form. hPhe(3-Cl-4-CF3) = N[C@@H](CCc1ccc(C(F)(F)F)c(Cl)c1)C(=O)O; NPrPhe(4-CF3) = CCCN[C@@H](Cc1ccc(C(F)(F)F)cc1)C(=O)O; NMeGly(cPent) = CN[C@H](C(=O)O)C1CCCC1; NMeD = CN[C@@H](CC(=O)O)C(=O)O; NMeL = CN[C@@H](CC(C)C)C(=O)O; Ac5c = NC1(C(=O)O)CCCC1; NEtG = CCNCC(=O)O; Sar = CNCC(=O)O

Tests used:
[1] = test system: human lung cancer strain NCI-H441;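 further: cell proliferation inhibition after four days measured by CellTiter-Glo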
[2] = target: GDP-bound NRAS wild-type protein (Homo sapiens, UniProt P01111); experiment: Binding to NRAS by surface plasmon resonance (SPR), Single Cycle Kinetics; conditions: for NRAS/KRAS (ratio of KD value with respect to GDP-bound NRAS wild-type protein to KD value with respect to KRAS): SPR KD ratio NRAS/KRAS, class symbols
[3] = target: GDP-bound HRAS wild-type protein (Homo sapiens, UniProt P01112); experiment: Binding to HRAS by surface plasmon resonance (SPR), Single Cycle Kinetics; conditions: for HRAS/KRAS (ratio of KD value with respect to GDP-bound HRAS wild-type protein to KD value with respect to KRAS): SPR KD ratio HRAS/KRAS, class symbols
[4] = target: GDP-bound KRAS wild-type protein (Homo sapiens, UniProt P01116); experiment: Binding to KRAS by surface plasmon resonance (SPR), Single Cycle Kinetics; conditions: GDP-bound KRAS wild-type protein, read-out: KRAS KD
[5] = SPR, GDP-bound NRAS wild-type protein vs GDP-bound KRAS wild-type protein
[6] = SPR, GDP-bound HRAS wild-type protein vs GDP-bound KRAS wild-type protein
[7] = SPR, GDP-bound NRAS wild-type protein vs GDP-bound KRAS wild-type protein, KD ratio class
[8] = SPR, GDP-bound HRAS wild-type protein vs GDP-bound KRAS wild-type protein, KD ratio class
[9] = SPR, Single Cycle Kinetics, 1:1 binding model
[10] = SPR Single Cycle Kinetics, 1:1 binding model

Sequence of GDP-bound HRAS wild-type protein (P01112 whole entry): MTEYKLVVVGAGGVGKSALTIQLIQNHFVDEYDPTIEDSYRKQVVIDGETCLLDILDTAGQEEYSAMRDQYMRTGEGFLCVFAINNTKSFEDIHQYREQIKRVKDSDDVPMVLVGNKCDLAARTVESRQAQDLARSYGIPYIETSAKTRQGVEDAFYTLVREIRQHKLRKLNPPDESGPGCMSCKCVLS
Sequence of GDP-bound NRAS wild-type protein (P01111 whole entry): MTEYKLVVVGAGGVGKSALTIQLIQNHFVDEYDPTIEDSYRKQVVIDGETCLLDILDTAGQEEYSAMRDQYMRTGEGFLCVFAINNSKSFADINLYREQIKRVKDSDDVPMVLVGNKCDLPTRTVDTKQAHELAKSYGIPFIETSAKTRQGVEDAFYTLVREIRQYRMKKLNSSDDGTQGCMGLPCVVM
Sequence of GDP-bound KRAS wild-type protein (P01116 whole entry): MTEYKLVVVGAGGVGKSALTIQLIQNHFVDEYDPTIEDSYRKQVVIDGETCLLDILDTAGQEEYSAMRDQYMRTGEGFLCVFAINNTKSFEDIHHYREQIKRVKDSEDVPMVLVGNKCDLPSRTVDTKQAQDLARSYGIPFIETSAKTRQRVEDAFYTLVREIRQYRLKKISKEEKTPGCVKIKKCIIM

| Compound | IC50 [1] [nM] | Kd ([4]; SPR, Single Cycle Kinetics) [nM] | Kd [4, 10] [nM] | NRAS/KRAS (ratio of KD value for NRAS to KD value for KRAS) [2, 5] | HRAS/KRAS (ratio of KD value for HRAS to KD value for KRAS) [3, 6] | NRAS/KRAS (ratio of KD value with respect to GDP-bound NRAS wild-type protein to KD value with respect to KRAS) [2] | HRAS/KRAS (ratio of KD value with respect to GDP-bound HRAS wild-type protein to KD value with respect to KRAS) [3] | also measured |
| --- | --- | --- | --- | --- | --- | --- | --- | --- |
| CCCOC[C@H]1C(=O)N[C@@H]([C@@H](C)OCC)C(=O)N(C)CC(=O)N(C)[C@H]2C/C=C\CCN(C2=O)[C@@H](Cc2ccc(C)cc2)C(=O)N(C)CC(=O)N[C@@H](CCc2cc(F)c(C(F)(F)F)c(F)c2)C(=O)N2C[C@@H](C)C[C@H]2C(=O)NC2(CC(C)(C)C2)C(=O)N(C)[C@@H](C2CCCC2)C(=O)N(C)[C@H](C(=O)N(C)CC)CC(=O)N1C [PP2424] | 50.9 | 0.37 | – | A (a compound having 10 or more and less than 20 is denoted as A) | A (a compound having 10 or more and less than 20 is denoted as A) | – | – | – |
| CC[C@H](C)[C@@H]1NC(=O)[C@H](CC)N(C)C(=O)C[C@@H](C(=O)N(C)C)N(C)C(=O)[C@H](C2CCCC2)N(C)C(=O)C2(CCC2)NC(=O)[C@@H]2C[C@H](C)CN2C(=O)[C@H](CCc2cc(F)c(C(F)(F)F)c(F)c2)NC(=O)CN(C)C(=O)[C@H](Cc2ccc(C(F)(F)F)cc2)N2CC/C=C\C[C@@H](C2=O)N(C)C(=O)CN(C)C1=O [PP1134, (2S,8S,12S,14S,20S,23S,27S,30S,36S,38Z)-20-cyclopentyl-8-[2-[3,5-difluoro-4-(trifluoromethyl)phenyl]ethyl]-27-ethyl-N,N,4,12,19,22,26,32,35-nonamethyl-30-[(1S)-1-methylpropyl]-3,6,9,15,18,21,25,28,31,34,42-undecaoxo-2-[[4-(trifluoromethyl)phenyl]methyl]spiro[1,4,7,10,16,19,22,26,29,32,35-undecazatricyclo[34.5.1.0^10,14]dotetracont-38-ene-17,1′-cyclobutane]-23-carboxamide] | 20 | 0.06 | – | A (a compound having 10 or more and less than 20 is denoted as A) | B (a compound having 3 or more and less than 10 is denoted as B) | – | – | – |
| CCO[C@@H]1C[C@H]2C(=O)NC3(CC(C)(C)C3)C(=O)N(C)[C@@H](C(CC)CC)C(=O)N(C)[C@H](C(=O)N(C)C)CC(=O)N(C)[C@@H](C(C)C)C(=O)N[C@@H]([C@@H](C)CC)C(=O)N(C)CC(=O)N(C)[C@H]3C/C=C\CCN(C3=O)[C@@H](CC3CCC(F)(F)CC3)C(=O)N(C)CC(=O)N[C@@H](CCc3ccc(C(F)(F)F)c(Cl)c3)C(=O)N2C1 [PP2492] | 76.7 | 2.4 | – | AA (a compound having 20 or more is denoted as AA) | A (a compound having 10 or more and less than 20 is denoted as A) | – | – | – |
| CC[C@H](C)[C@@H]1NC(=O)[C@H](COC)N(C)C(=O)C[C@@H](C(=O)N(C)C)N(C)C(=O)[C@H](C2CCCCC2)N(C)C(=O)C2(CC(C)(C)C2)NC(=O)[C@@H]2C[C@@H](OC(C)C)CN2C(=O)[C@H](CCc2cc(F)c(C(F)(F)F)c(F)c2)NC(=O)CN(C)C(=O)[C@H](Cc2ccc(C)cc2)N2CC/C=C\C[C@@H](C2=O)N(C)C(=O)CN(C)C1=O [PP2660] | 14.3 | – | 0.18 | – | – | A (a compound having 10 or more and less than 20 is denoted as A) | A (a compound having 10 or more and less than 20 is denoted as A) | – |
| CCOC[C@H]1C(=O)N[C@@H]([C@@H](C)CC)C(=O)N(C)CC(=O)N(C)[C@H]2C/C=C\CCN(C2=O)[C@@H](Cc2ccc(C(F)(F)F)cc2)C(=O)N(C)CC(=O)N[C@@H](CCc2ccc(Cl)c(Cl)c2)C(=O)N2C[C@H](OCC)C[C@H]2C(=O)NC2(CC(C)(C)C2)C(=O)N(C)[C@@H](CC(C)(C)C)C(=O)N(C)[C@H](C(=O)N(C)C)CC(=O)N1C [PP2740] | 24.2 | – | 0.17 | – | – | AA (a compound having 20 or more is denoted as AA) | A (a compound having 10 or more and less than 20 is denoted as A) | – |
| CCCN1C(=O)CN(C)C(=O)CN(CC)C(=O)[C@H]([C@@H](C)CC)NC(=O)[C@H](CC(C)C)N(C)C(=O)C[C@@H](C(=O)N(C)C)N(C)C(=O)[C@H](C2CCCC2)N(C)C(=O)C2(CCCC2)NC(=O)[C@@H]2CCCN2C(=O)[C@H](CCc2ccc(C(F)(F)F)c(Cl)c2)NC(=O)CN(C)C(=O)[C@@H]1Cc1ccc(C(F)(F)F)cc1 [PP0423] ([NMeL]I[NEtG][Sar][NPrPhe(4-CF3)][Sar][hPhe(3-Cl-4-CF3)]P[Ac5c][NMeGly(cPent)][NMeD]-NMe2; lactam N-11) | 7.1 | – | 0.18 | – | – | – | – | NRAS/KRAS (ratio of KD value with respect to NRAS to KD value with respect to KRAS) [2, 5]: B (a compound having 3 or more and less than 10 is denoted as B); HRAS/KRAS (ratio of KD value with respect to HRAS to KD value with respect to KRAS) [3, 6]: C (A compound having a KD ratio of 0.1 or more and less than 3 is denoted as C) |
| CCO[C@@H]1C[C@H]2C(=O)NC3(CC(C)(C)C3)C(=O)N(C)[C@@H](CC(C)(C)C)C(=O)N(C)[C@H](C(=O)N(C)C)CC(=O)N(C)[C@@H](COC)C(=O)N[C@@H]([C@@H](C)CC)C(=O)N(C3CC3)CC(=O)N(C)[C@H]3C/C=C\CCN(C3=O)[C@@H](Cc3ccc(C(F)(F)F)cc3)C(=O)N(C)CC(=O)N[C@@H](CCc3cc(F)c(C(F)(F)F)c(F)c3)C(=O)N2C1 [PP2744] | 10.7 | – | 0.23 | – | – | A (a compound having 10 or more and less than 20 is denoted as A) | A (a compound having 10 or more and less than 20 is denoted as A) | – |

Further lines, with some results ahead:

| IC50 [1] [nM] | Kd ([4]; SPR, Single Cycle Kinetics) [nM] | Kd [4, 10] [nM] | Compound | NRAS/KRAS (ratio of KD value for NRAS to KD value for KRAS) [2, 5] | HRAS/KRAS (ratio of KD value for HRAS to KD value for KRAS) [3, 6] | NRAS/KRAS (ratio of KD value with respect to GDP-bound NRAS wild-type protein to KD value with respect to KRAS) [2] | HRAS/KRAS (ratio of KD value with respect to GDP-bound HRAS wild-type protein to KD value with respect to KRAS) [3] | also measured |
| --- | --- | --- | --- | --- | --- | --- | --- | --- |
| 6.4 | – | – | CCO[C@@H]1C[C@H]2C(=O)NC3(CCC3)C(=O)N(C)[C@@H](C3CCCC3)C(=O)N(C)[C@H](C(=O)N(C)C)CC(=O)N(C)[C@@H](CC3CC3)C(=O)N[C@@H]([C@@H](C)CC)C(=O)N(C)CC(=O)N(C)[C@H]3C/C=C\CCN(C3=O)[C@@H](Cc3ccc(C(F)(F)F)cc3)C(=O)N(C)CC(=O)N[C@@H](CCc3ccc(C(F)(F)F)c(OC)c3)C(=O)N2C1 [PP1247, (2S,8S,12R,14S,20S,23S,27S,30S,36S,38Z)-20-cyclopentyl-27-(cyclopropylmethyl)-12-ethoxy-8-[2-[3-methoxy-4-(trifluoromethyl)phenyl]ethyl]-N,N,4,19,22,26,32,35-octamethyl-30-[(1S)-1-methylpropyl]-3,6,9,15,18,21,25,28,31,34,42-undecaoxo-2-[[4-(trifluoromethyl)phenyl]methyl]spiro[1,4,7,10,16,19,22,26,29,32,35-undecazatricyclo[34.5.1.0^10,14]dotetracont-38-ene-17,1′-cyclobutane]-23-carboxamide] | – | – | – | – | NRAS/KRAS (ratio of KD value for NRAS to KD value for KRAS) [2, 7]: A (a compound having 10 or more and less than 20 is denoted as A); HRAS/KRAS (ratio of KD value for HRAS to KD value for KRAS) [3, 8]: A (a compound having 10 or more and less than 20 is denoted as A); Kd [4, 9]: 0.046 nM |
| 13.2 | – | – | CCO[C@@H]1C[C@H]2C(=O)NC3(CCC3)C(=O)N(C)[C@@H](C3CCCC3)C(=O)N(C)[C@H](C(=O)N(C)C)CC(=O)N(C)[C@@H](CC)C(=O)N[C@@H]([C@@H](C)CC)C(=O)N(C)CC(=O)N(C)[C@H]3C/C=C\CCN(C3=O)[C@@H](Cc3ccc(C(F)(F)F)cc3)C(=O)N(C)CC(=O)N[C@@H](CCc3ccc(C(F)(F)F)c(OC)c3)C(=O)N2C1 [PP1243, (2S,8S,12R,14S,20S,23S,27S,30S,36S,38Z)-20-cyclopentyl-12-ethoxy-27-ethyl-8-[2-[3-methoxy-4-(trifluoromethyl)phenyl]ethyl]-N,N,4,19,22,26,32,35-octamethyl-30-[(1S)-1-methylpropyl]-3,6,9,15,18,21,25,28,31,34,42-undecaoxo-2-[[4-(trifluoromethyl)phenyl]methyl]spiro[1,4,7,10,16,19,22,26,29,32,35-undecazatricyclo[34.5.1.0^10,14]dotetracont-38-ene-17,1′-cyclobutane]-23-carboxamide] | – | – | – | – | NRAS/KRAS (ratio of KD value for NRAS to KD value for KRAS) [2, 7]: A (a compound having 10 or more and less than 20 is denoted as A); HRAS/KRAS (ratio of KD value for HRAS to KD value for KRAS) [3, 8]: A (a compound having 10 or more and less than 20 is denoted as A); Kd [4, 9]: 0.058 nM |
| 195 | – | 4.1 | CCC[C@H]1C(=O)N[C@@H](CC(C)C)C(=O)N(C2CC2)CC(=O)N(C)[C@H]2C/C=C\CCN(C2=O)[C@@H](Cc2ccc(C)cc2)C(=O)N(C)CC(=O)N[C@@H](CCc2ccc(C(F)(F)F)c(OC)c2)C(=O)N2C[C@H](OCC)C[C@H]2C(=O)NC2(CCC2)C(=O)N(C)[C@@H](C2CCCC2)C(=O)N(C)[C@H](C(=O)N(C)C)CC(=O)N1C [PP2534] | – | – | A (a compound having 10 or more and less than 20 is denoted as A) | B (a compound having 3 or more and less than 10 is denoted as B) | – |
